Data as given in PubChem BioAssay AID1996.
Converted amounts (≈) assume the structure as drawn.

Settings: buffer; pH 7.4; 200.0 µM

Row | Compound | solubility kinetic [µg/mL]
1 | Nc1cc(N2CCCC2)c(Cl)cc1[N+](=O)[O-] | 3 (≈ 12.4 µM)
2 | O=C1CCN(C(=S)NCc2ccccc2)CC1 | > 37.3
3 | N#Cc1ccc(OCC(=O)NNC(=S)NC(=O)C2CC2)cc1 | > 47.8
4 | CC1CCc2sc3ncnc(N4CCN(C)CC4)c3c2C1 (stereo not given) | > 45.4
5 | O=C1CSc2ccc(C(=O)O)cc2N1 | > 31.4
6 | CC(C#N)(Cc1ccccc1)Nc1ccccc1 (stereo not given) | 18.8 (≈ 79.6 µM)
7 | CCN(CC)c1ccc(/C=C(\C#N)C(N)=O)cc1 | > 36.5
8 | CC(=O)C(Cc1ccccc1)NC(=O)COc1ccc2c(c1)OCO2 (stereo not given) | > 51.2
9 | CC(CN1C(C)CCCC1C)OC(=O)c1ccc(Cl)cc1 (stereo not given) | > 46.5
10 | Clc1ccccc1CN1CCN(c2cccc3[nH]ccc23)CC1 | 23.5 (≈ 72.1 µM)
11 | O=C(NNC(=O)C12CC3CC(CC(C3)C1)C2)c1ccccc1F | > 47.5
12 | CC(C)=CCN1CCN(Cc2cccc3nccnc23)CC1CCO (stereo not given) | > 51.1
13 | COc1ccc(CNC(=O)C(NC(C)=O)C(C)C)cc1OC (stereo not given) | > 46.3
14 | COc1ccc(NC(=S)Nc2ccc(OC(F)F)cc2)cn1 | 35 (≈ 108 µM)
15 | O=C(CCc1ccccc1)Nc1cccnc1Cl | 35.1 (≈ 135 µM)
16 | N#Cc1ccc(NC(=O)CN2CCCCCC2)cc1Cl | 26.4 (≈ 90.5 µM)
17 | CCCN(Cc1ccccc1)C(=S)Nc1ccc(F)cc1 | 39.2 (≈ 130 µM)
18 | CN1CCN(CCC(=O)Nc2ccc(Br)cc2)CC1 | 48.5 (≈ 149 µM)
19 | C=CCNC(=S)N1CCC(C(N)=O)CC1 | > 34.1
20 | O=[N+]([O-])c1ccc(Oc2cccc(C(F)(F)F)c2)nc1 | 3.5 (≈ 12.3 µM)
21 | CC(C)Oc1cccc(C(=O)C2CCCN(C(=O)c3ccsc3)C2)c1 (stereo not given) | 44.8 (≈ 125 µM)
22 | O=S1(=O)CC2SC(=S)N(Cc3ccccc3)C2C1 (stereo not given) | 1.8 (≈ 6.01 µM)
23 | CC1CN(/C=C/C=O)C(C)CC1OC(=O)c1ccccc1 (stereo not given) | > 43.1
24 | CCN(C(=O)CN1CCC(C(=O)OC)CC1)c1c(N)n(Cc2ccccc2)c(=O)[nH]c1=O | > 66.5
25 | CCN(CC)P(=O)(Oc1ccccc1)Oc1ccccc1 | 34.2 (≈ 112 µM)
26 | O=[N+]([O-])c1ccc(CCn2ccnc2)cc1 | > 32.6

Now from value to compound:

Row | solubility kinetic [µg/mL] | Compound
27 | 35.5 (≈ 137 µM) | Cc1cc(SC2CCOC2=O)nc2ccccc12 (stereo not given)
28 | 33.1 (≈ 139 µM) | COc1ccc(-c2cn3ccc(C)cc3n2)cc1
29 | 2.1 (≈ 6.66 µM) | COc1ccc(CCNC(=O)c2csc3c2CCCC3)cc1
30 | 2.4 (≈ 8.81 µM) | N#Cc1c(-c2cccnc2)cc(-c2ccccc2)nc1N
31 | > 46.4 | CN1CCN(S(=O)(=O)c2ccc3c(c2)CC(=O)N3C)CC1
32 | 34.8 (≈ 115 µM) | COC(=O)c1c(C)oc(C)c1S(=O)(=O)N1CCCCC1
33 | 2.5 (≈ 7.05 µM) | COc1ccc(C(=O)NCCc2nc3cc([N+](=O)[O-])ccc3n2C)cc1
34 | 9 (≈ 23.9 µM) | Cc1ccc(/C=C/S(=O)(=O)NCCC(=O)NCc2ccccc2F)cc1
35 | > 53.8 | CCCc1[nH]n(-c2nc3ccccc3s2)c(=O)c1C=NCCCOC
36 | 33.6 (≈ 120 µM) | COc1cccc(C(=O)C(C#N)=C(SC)SC)c1
37 | 3 (≈ 9.1 µM) | FC(F)(F)c1cnc2c(c1)[nH]c(=S)n2-c1ccc(Cl)cc1
38 | 7.2 (≈ 21.4 µM) | COC(=O)c1sc(NC(=O)c2c(F)cccc2F)c(C#N)c1C
39 | 33.9 (≈ 131 µM) | Cc1nc2cc(Cl)c(Cl)cc2n1CCCO
40 | > 49.4 | O=C(O)c1cc(S(=O)(=O)NCCN2CCNC2=O)ccc1O
41 | 3.2 (≈ 10.3 µM) | COc1ccc(C(=O)/C=C/c2ccc(N(C)C)cc2)c(OC)c1
42 | > 41.2 | Cc1cc(C)nc(N2CCCC(C(=O)NC3CC3)C2)n1 (stereo not given)
43 | 34.8 (≈ 93.2 µM) | COc1ccc(-n2c(SC)nc3sc4c(c3c2=O)CCN(C)C4)cc1

Row | solubility kinetic [µg/mL] | Compound
44 | 0.7 (≈ 2.22 µM) | CN(C)c1cc(Nc2ccc(O)cc2)c([N+](=O)[O-])c2nonc12
45 | 42.4 (≈ 134 µM) | Cc1ccc(S(=O)(=O)CC(=O)NC(C)c2ccccc2)cc1 (stereo not given)
46 | > 45.4 | Cc1nc(SCC(=O)N2CCNC2=O)c2ccccc2n1
47 | 2.1 (≈ 6.9 µM) | CC(C)OC(=O)CSc1nc(C(C)C)nc2ccccc12
48 | 5.3 (≈ 14.2 µM) | COc1cc(C(=O)OCc2cc(=O)n3ccsc3n2)ccc1OC(C)C
49 | 44.6 (≈ 142 µM) | Cc1cc(C)c(S(=O)(=O)c2cc(F)ccc2C)c(Cl)n1
50 | 44.1 (≈ 148 µM) | COC(=O)c1ccsc1NS(=O)(=O)c1ccccc1
51 | > 39 | Cc1cc(C)n(-c2cc(C(=O)O)cc(C(=O)O)c2)n1
52 | > 31.1 | CC(=O)OCC(=O)Nc1ccccc1C
53 | 1 (≈ 3.15 µM) | CCc1c(C(=O)Nc2cc(C(=O)OC)ccc2C)csc1C
54 | 35.1 (≈ 110 µM) | Cc1ccc(S(=O)(=O)NC(=O)Nc2ccc(C)cc2C)cc1
55 | 6.9 (≈ 22.6 µM) | CC1(C)CC(=O)C2=C(C1)NC(=O)NC2c1ccc(Cl)cc1 (stereo not given)
56 | 2.1 (≈ 6.21 µM) | COCCCn1c(=O)c2ccccc2n(Cc2ccc(C)cc2)c1=O
57 | 3.4 (≈ 13.6 µM) | Cc1cnc(NC(=O)Cc2ccccc2F)s1
58 | 1 (≈ 3.47 µM) | COc1cc([N+](=O)[O-])ccc1NC(=O)Nc1cccnc1
59 | 37.2 (≈ 140 µM) | COCCCNC(=S)Nc1c(C)cc(C)cc1C
60 | 6.4 (≈ 15.2 µM) | CC(=O)c1c(C)[nH]c(C(=O)CN2CCN(S(=O)(=O)c3ccccc3F)CC2)c1C
